The assay concerns the target EGFR (Homo sapiens, UniProt P00533). Description: ADP-Glo in vitro kinase assay, EGFR kinase inhibition. Type of assay: biochemical. On the set-up: purchased SignalChem. The method, then:
The ADP-Glo™ Kinase Assay (Promega), monitoring ADP produced in the kinase reaction, was performed in two steps. In the first one, after the kinase reaction, the ADP-Glo™ Reagent is added to terminate the kinase reaction and deplete the remaining ATP. In the second step, the Kinase Detection Reagent is added to simultaneously convert ADP to ATP (ATPn or newly synthesized ATP) and introduce luciferase and luciferin, allowing the ATPn to be measured (luciferase/luciferin reaction). The amount of light generated correlates with the amount of ATPn (indirectly with the ADP produced in kinase reaction).
Kinase reaction was performed in 10 μl in a white 384-well plate, inhibitor solutions in DMSO/Kinase buffer (40 mM Tris-Cl, 20 mM MgCl2, 0.1 mg/ml BSA, 50 μM DTT, pH 7.5) and EGFR kinase in Kinase buffer (SignalChem, 2.5 ng/μl final concentration in assay) were pre-incubate 15 minutes at room temperature. At the kinase concentration selected a signal-to negative control ratio >10 was calculated, according to supplier indication. In samples representing the Total enzymatic activity (no inhibitor) or the negative control (no enzyme), inhibitor solution was replaced by diluents (1 DMSO in kinase buffer, final concentration) or ultra-pure water, respectively.
The range of inhibitor concentrations was from 10^−11 M up to 3×10^−6 M (final concentration in assay) and each experimental point was performed in duplicate.
To start the reaction, a substrate/ATP mix (ATP 10 μM final concentration, near to ATP Km value) was added to each sample and after 30 minutes incubation at room temperature, ADP-Glo™ Reagent and Kinase Detection Reagent, incubated in sequence according to the respective incubation time and supplier indication, allowed to stop and develop the kinase reaction. The luminescence was measured with a plate-reading luminometer (Envision 2104 Multilabel reader, PerkinElmer). The percentage of inhibition was calculated towards the Total enzymatic activity and the corresponding curves were analyzed by non linear curve fitting (GraphPad software, version 7 for Windows), allowing to calculate the IC50 value±standard error of the estimate.
On the technique in general: In ADP-Glo the light output rises with the ADP produced.

Here are results for one compound from patent US20220041559A1, “BENZO-AND PYRIDO-PYRAZOLES AS PROTEIN KINASE INHIBITORS” (ROTTAPHARM BIOTECH S.R.L., priority 2019, published 2022).

pIC50: −log10 of the molar value.

Sequence of EGFR (P00533 25-1210): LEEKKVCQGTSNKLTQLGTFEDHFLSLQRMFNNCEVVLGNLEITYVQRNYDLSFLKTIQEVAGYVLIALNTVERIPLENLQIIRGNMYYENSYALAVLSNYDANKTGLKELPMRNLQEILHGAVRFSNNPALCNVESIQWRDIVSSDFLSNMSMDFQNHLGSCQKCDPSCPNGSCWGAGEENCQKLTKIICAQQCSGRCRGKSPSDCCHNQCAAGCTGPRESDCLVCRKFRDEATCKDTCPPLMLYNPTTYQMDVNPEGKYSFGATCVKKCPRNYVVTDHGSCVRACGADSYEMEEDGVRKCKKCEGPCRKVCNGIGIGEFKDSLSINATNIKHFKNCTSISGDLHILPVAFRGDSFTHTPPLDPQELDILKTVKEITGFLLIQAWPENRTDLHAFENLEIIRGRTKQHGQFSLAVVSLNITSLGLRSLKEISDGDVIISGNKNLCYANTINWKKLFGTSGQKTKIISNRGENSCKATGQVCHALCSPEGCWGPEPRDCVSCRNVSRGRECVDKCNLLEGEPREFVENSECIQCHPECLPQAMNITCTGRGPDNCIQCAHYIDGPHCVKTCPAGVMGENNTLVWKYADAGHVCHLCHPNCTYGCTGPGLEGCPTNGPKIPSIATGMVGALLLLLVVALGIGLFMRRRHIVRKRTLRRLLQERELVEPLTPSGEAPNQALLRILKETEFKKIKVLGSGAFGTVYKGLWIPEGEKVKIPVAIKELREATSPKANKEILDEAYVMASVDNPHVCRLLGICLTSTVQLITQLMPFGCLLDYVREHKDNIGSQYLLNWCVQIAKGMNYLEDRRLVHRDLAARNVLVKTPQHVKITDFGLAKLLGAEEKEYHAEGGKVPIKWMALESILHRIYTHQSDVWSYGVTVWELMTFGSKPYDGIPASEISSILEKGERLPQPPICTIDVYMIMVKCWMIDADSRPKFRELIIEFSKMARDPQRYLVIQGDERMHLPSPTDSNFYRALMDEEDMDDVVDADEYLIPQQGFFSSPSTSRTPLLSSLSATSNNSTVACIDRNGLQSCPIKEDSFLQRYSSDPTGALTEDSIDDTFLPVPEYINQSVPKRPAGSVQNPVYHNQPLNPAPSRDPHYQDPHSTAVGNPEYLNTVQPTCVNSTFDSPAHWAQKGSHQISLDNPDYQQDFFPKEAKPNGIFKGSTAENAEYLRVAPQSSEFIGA

By pIC50 is commonly meant the IC50 on a negative log10 scale, so that one unit is a factor of ten. The compound `CN1CCC(c2ccc(C(=O)Nc3n[nH]c4nc(Nc5ccccc5F)ccc34)cc2)CC1` [Compound 5, N-(6-((2-fluorophenyl)amino)-1H-pyrazolo[3,4-b]pyridin-3-yl)-4-(1-methylpiperidin-4-yl)benzamide] had a pIC50 (ATP 10 μM, 30 minutes at room temperature) of 8.22. The “EGFR kinase inhibition, result in words” value (text summary of Table 18) is “more active”.
